Measured values from US20190183961A1, “GLUTAMINE FOR PRESERVING, IMPROVING OR RESTORING KIDNEY FUNCTION” (Fresenius Kabi Deutschland GmbH, priority 2016, published 2019).
Where two headings read alike, the source gives them in different places. Peptide text beside a SMILES is read from it.

Tested on: 5/6 kidney nephrectomised rat model
Assay type: in vivo
Conditions: for effect on incidence/occurrence of chronic progressive nephropathy (in words): continuous i.v. infusion, all doses, versus nephrectomised control; for effect on incidence/occurrence of chronic progressive nephropathy (in words) / incidence of chronic progressive nephropathy (animals affected/animals examined): 9 days; for incidence of chronic progressive nephropathy (animals affected/animals examined): 5/6 nephrectomised rats; for changes in blood levels of biomarkers for kidney and liver injury / treatment-related clinical signs / tolerability of intravenous infusion: rat, in vivo
Procedure: The effect of L-glutamine (administered in form of L-alanyl-L-glutamine; Dipeptiven™) following daily continuous intravenous infusion was examined in a 5/6 kidney nephrectomised rat model.
L-alanyl-L-glutamine was administered for 9 consecutive days. The effects attributable to L-glutamine (provided in form of alanyl-glutamine; Dipeptiven™) were determined by comparison to an L-alanine infusion.
To prevent protein overdose, the protein content of the animal food was adapted according to the L-alanyl-L-glutamine or L-alanine dose administered intravenously.
The study was conducted according to the following design:
Group 1 and 2 animals (control) received the vehicle (0.9% NaCl).
Groups 5 and 6 received Dipeptiven™ without any dilution, i.e. L-alanyl-L-glutamine in a concentration of 200 mg/ml.
Group 3 and 4 animals received diluted Dipeptiven™, i.e. L-alanyl-L-glutamine in a concentration of 13.33 and 80 mg/ml respectively.
Group 7 and 8 animals received L-alanine in a concentration of 32 and 80 mg/ml respectively.
All animals in groups 1 and 3 to 8 underwent a 5/6 nephrectomy. All animals in group 2 were “sham operated”, meaning the abdomen was opened and closed in the surgery, but the kidneys were not excised and remained in the body.
During the acclimatisation period, a polyurethane catheter was implanted into the posterior vena cava via the left femoral vein. Following implantation, the animals were maintained on continuous infusion with physiological saline prior to the start of treatment.
Morbidity/mortality checks were performed at least twice daily. Clinical observations were performed daily. A full clinical examination was performed daily. Individual body weights were recorded three times a week. Food consumption was measured three times a week for each cage of animals, including one measurement during the acclimatisation period. Clinical laboratory determinations were performed on selected animals on days −1 and on days 1 to 10. Animals were sampled for amino acid determination on days 1, 4, 7 and 10. Animals were fasted before blood sampling performed on day 10.
All animals were killed at the end of the treatment period (day 10) and necropsied. Organ/tissue samples were fixed and preserved at necropsy for all animals. Selected organs/tissues from all animals were examined histopathologically. In addition, selected organs/tissues from all animals were used for amino acid determination.

[1] = 3.0 g/kg/day continuous i.v. infusion, 9% protein in diet
[2] = groups 4 and 8: 3.0 g/kg/day, 9% protein in diet, control 60%

Compound	effect on incidence/occurrence of chronic progressive nephropathy (in words)	occurrence of chronic progressive nephropathy, percent of animals (group 6: 7.5 g/kg/day, 12% protein in diet (amino acid overload)) [%]	incidence of chronic progressive nephropathy (animals affected/animals examined) (1.2 g/kg/day continuous i.v. infusion, 10.8% protein in diet)	incidence of chronic progressive nephropathy (animals affected/animals examined) [1]	occurrence of chronic progressive nephropathy, percent of animals [2] [%]	changes in blood levels of biomarkers for kidney and liver injury	treatment-related clinical signs	tolerability of intravenous infusion	incidence of chronic progressive nephropathy (animals affected/animals examined) (0.5 g/kg/day continuous i.v. infusion, 12% protein in diet)	incidence of chronic progressive nephropathy (animals affected/animals examined) (7.5 g/kg/day continuous i.v. infusion, 4.5% protein in diet)	incidence of chronic progressive nephropathy (animals affected/animals examined) (7.5 g/kg/day continuous i.v. infusion, 12% protein in diet (amino acid overload))	incidence of chronic progressive nephropathy (animals affected/animals examined) (7.5 g/kg/day continuous i.v. infusion, 12% protein in diet (amino acid overload), listed as L-alanyl-L-glutamine)	occurrence of chronic progressive nephropathy, percent of animals (group 3: 0.5 g/kg/day, 12% protein in diet, control 60%) [%]	occurrence of chronic progressive nephropathy, percent of animals (group 5: 7.5 g/kg/day, 4.5% protein in diet, control 60%) [%]
NC(=O)CC[C@H](N)C(=O)O [L-glutamine]	reduces the occurrence of chronic progressive nephropathy in a dose-dependent manner	20	–	–	–	–	–	–	–	–	–	–	–	–
C[C@H](N)C(=O)O [Ala, L-alanine]	did not	–	4/5	3/5	60	No treatment-related	No treatment-related clinical signs	overall well tolerated	–	–	–	–	–	–
C[C@H](N)C(=O)N[C@@H](CCC(N)=O)C(=O)O [Ala-Gln, L-alanyl-L-glutamine] (H-Ala-Gln-OH)	decreased incidence of chronic progressive nephropathy	–	–	0/5	0	No treatment-related	No treatment-related clinical signs	overall well tolerated	2/5	0/5	1/5	2/5	40	0
